# Assays:
# [1] = tested on: P. putida KT2440/pCJ021; experiment: Growth on and metabolism of aromatic substrate by P. putida KT2440/pCJ021 (cytochrome P450 O-dealkylase and reductase) in M9 minimal medium; assay type: cell-based, Pseudomonas putida
# Text: (§1) The genes encoding the cytochrome P450 protein and the co-transcribed reductase were amplified from Amycolatopsis sp. ATCC 39116 DNA using primers oCJ169 and oCJ170 (see Table 2) and the product assembled using Gibson Assembly Master Mix (New England BioLabs) into the broad host-range vector pBTL-2, which was amplified using primers oCJ160 and oCJ161, resulting in pCJ021. pBTL-2 (a gift from Ryan Gill; Addgene plasmid #22806) is a broad host-range vector that drives expression of inserted genes using the lac promoter, which is constitutively expressed in Pseudomonas putida KT2440. The cytochrome P450 gene alone was also amplified using oCJ169 and oCJ206 and assembled it into the same vector (resulting in pCJ024). pCJ021 was then transformed into P. putida KT2440 to generate P. putida KT2440/pCJ021.
# HPLC analysis was performed by injecting 6 μL of 0.2 μm filtered culture supernatant onto an Agilent 1100 series system equipped with a Phenomenex Rezex RFQ-Fast Acid H+ (8%) column and a cation H+ guard cartridge (Bio-Rad Laboratories) at 85° C. run using a mobile phase of 0.01 N sulfuric acid at a flow rate of 1.0 mL/min and a diode array detector to measure absorbance at 210 nm. Analytes were identified by comparing retention times and spectral profiles with pure standards. HPLC chromatograms show milli-absorbance units (mAU) on the Y axis and retention time (minutes) on the X axis.
# (§2) P. putida KT2440 can readily metabolize catechol for growth, so a functional enzyme with O-dealkylase activity would convert guaiacol or guaethol to catechol and enable this organism to metabolize guaiacol or guaethol for growth, which it is not natively capable of.
# HPLC analyses show the disappearance of guaiacol in a culture of P. putida KT2440/pCJ021 grown on M9 minimal medium containing guaiacol and the lack of guaiacol catabolism by native P. putida KT2440 (FIG. 6).
# [2] = tested on: P. putida KT2440 transformed with pCJ024; experiment: Metabolism of guaiacol by P. putida KT2440 transformed with pCJ024 (cytochrome P450 gene alone); assay type: cell-based, Pseudomonas putida; conditions: M9 minimal medium, 5 mM guaiacol
# Text: as §1, §2
# [3] = 5 mM guaiacol as sole source of carbon and energy
compound,measurement,setting,value
"CCOc1ccccc1O [guaethol, 2-ethoxyphenol]",metabolism of substrate,"[1]; 5 mM guaethol as sole source of carbon and energy, 72 hours",able to metabolize the guaethol
same,OD600 reached,"[1]; 5 mM guaethol, growth on the catechol produced",7
"COc1ccccc1O [guaiacol, 2-methoxyphenol]",metabolism of substrate,[2],neither of these strains was able to metabolize guaiacol
same,OD600 reached,[1]; [3],over 0.5
same,metabolism of substrate,[1]; [3],metabolizing the guaiacol completely
